Data published in ChEMBL document CHEMBL1201862, “PubChem BioAssay data set” (2004).
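Method: 48-hour compound exposure of cells in 96-well plates, five concentrations, linear interpolation of endpoints. The concentration for 50% growth inhibition is given as GI50.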 The source made the active and inactive calls. Cut-off read from the data, not from the text of the source: active = GI50 up to about 1.1 µM and inactive = higher.

Tests used:
Assay in all cases: DTP human tumour cell line panel, 48 h
MOLT-4 = test system: MOLT-4
EKVX = test system: EKVX
Malme-3M = test system: Malme-3M
SNB-19 = test system: SNB-19
MDA-MB-231 = test system: MDA-MB-231
OVCAR-8 = test system: OVCAR-8
RXF 393 = test system: RXF 393
SNB-75 = test system: SNB-75
SK-MEL-28 = test system: SK-MEL-28
NCI-H522 = test system: NCI-H522
UACC-62 = test system: UACC-62
HL-60 = test system: HL-60
MDA-N = test system: MDA-N
SF-295 = test system: SF-295
RPMI-8226 = test system: RPMI-8226
SK-MEL-2 = test system: SK-MEL-2
NCI-H226 = test system: NCI-H226
NCI/ADR-RES = test system: NCI/ADR-RES
NCI-H23 = test system: NCI-H23
SR = test system: SR

Measured: GI50

CC(C)=NNc1snnc1C(N)=O
inactive: MOLT-4 > 100 µM | EKVX > 100 µM | Malme-3M > 100 µM | SNB-19 > 100 µM | MDA-MB-231 > 100 µM | OVCAR-8 > 100 µM | RXF 393 > 100 µM | SNB-75 > 100 µM | SK-MEL-28 > 100 µM | NCI-H522 > 100 µM | UACC-62 > 100 µM | HL-60 > 100 µM | MDA-N > 100 µM | SF-295 > 100 µM | RPMI-8226 > 100 µM | SK-MEL-2 > 100 µM | NCI-H226 > 100 µM | NCI/ADR-RES > 100 µM | NCI-H23 > 100 µM

CCOC(=O)c1c(SC(=O)c2ccc(OC)cc2)n(-c2ccccc2)c(=S)n(-c2ccccc2)c1=O
inactive: MOLT-4 22.5 µM | EKVX > 100 µM | Malme-3M > 100 µM | SNB-19 > 100 µM | MDA-MB-231 24 µM | OVCAR-8 21.8 µM | RXF 393 49.3 µM | SNB-75 > 100 µM | SK-MEL-28 > 100 µM | NCI-H522 49.4 µM | SR 29.9 µM | UACC-62 > 100 µM | HL-60 40.3 µM | MDA-N > 100 µM | SF-295 > 100 µM | NCI-H226 84.1 µM | NCI/ADR-RES > 100 µM | NCI-H23 61.9 µM

CCN1C(Cl)=NS(=O)(=O)c2ccccc21
inactive: MOLT-4 10.2 µM | EKVX 23.8 µM | SNB-19 35.5 µM | MDA-MB-231 23 µM | OVCAR-8 28.3 µM | RXF 393 17.3 µM | SK-MEL-28 74.8 µM | NCI-H522 4.66 µM | SR 34.1 µM | UACC-62 9.06 µM | HL-60 3.87 µM | MDA-N 29.1 µM | SF-295 > 100 µM | SK-MEL-2 39.7 µM | NCI-H226 21.6 µM | NCI/ADR-RES 26.5 µM | NCI-H23 23.6 µM

O=C1C=Cc2c1csc2Br
inactive: MOLT-4 21.3 µM | EKVX 87.5 µM | Malme-3M 38.1 µM | SNB-19 70.3 µM | MDA-MB-231 91.8 µM | OVCAR-8 38.2 µM | RXF 393 71.4 µM | SNB-75 > 100 µM | SK-MEL-28 63.1 µM | NCI-H522 18.7 µM | SR 10.6 µM | UACC-62 35.3 µM | MDA-N 50 µM | SF-295 > 100 µM | SK-MEL-2 > 100 µM | NCI/ADR-RES 33.8 µM | NCI-H23 33 µM

CC1(O)CC23CC1CCC2(C)C12CCCC(C)(C(=O)O1)C2CC3O (configuration not stated)
inactive: EKVX > 100 µM | Malme-3M > 100 µM | SNB-19 > 100 µM | MDA-MB-231 > 100 µM | OVCAR-8 > 100 µM | SNB-75 > 100 µM | SK-MEL-28 > 100 µM | NCI-H522 > 100 µM | SR > 100 µM | UACC-62 > 100 µM | HL-60 > 10 µM | MDA-N > 100 µM | SF-295 > 100 µM | SK-MEL-2 > 100 µM | NCI-H226 > 100 µM | NCI/ADR-RES > 100 µM | NCI-H23 > 100 µM

Oc1ccc2cc(Br)ccc2c1-c1c(O)ccc2ccc(Br)cc12
inactive: MOLT-4 4.85 µM | Malme-3M 13.4 µM | SNB-19 15.4 µM | MDA-MB-231 10 µM | OVCAR-8 14.4 µM | SNB-75 4.73 µM | SK-MEL-28 18.7 µM | NCI-H522 15.2 µM | SR 14.3 µM | UACC-62 17.3 µM | HL-60 5.42 µM | MDA-N 12.2 µM | SF-295 15.4 µM | SK-MEL-2 16 µM | NCI-H226 13.2 µM | NCI/ADR-RES 13.6 µM | NCI-H23 14.4 µM

O=C(Nc1ccccc1)c1cc2ccccc2c(/N=N\c2cccc([N+](=O)[O-])c2)c1O
inactive: MOLT-4 > 100 µM | EKVX 39 µM | Malme-3M 7.26 µM | SNB-19 31 µM | MDA-MB-231 56.8 µM | OVCAR-8 78.2 µM | RXF 393 47.8 µM | SNB-75 33.5 µM | SK-MEL-28 94.4 µM | NCI-H522 5.56 µM | SR 38.2 µM | UACC-62 > 100 µM | MDA-N > 100 µM | SF-295 > 100 µM | SK-MEL-2 > 100 µM | NCI-H226 > 100 µM | NCI/ADR-RES > 100 µM | NCI-H23 > 100 µM

O=NN(CCCl)C(=O)NC1CCCCC1 [LOMUSTINE]
inactive: MOLT-4 18.4 µM | EKVX 72.8 µM | Malme-3M 57.8 µM | SNB-19 52.5 µM | MDA-MB-231 21.6 µM | OVCAR-8 52.2 µM | RXF 393 35.3 µM | SNB-75 37.2 µM | SK-MEL-28 58.7 µM | NCI-H522 24.4 µM | UACC-62 12.7 µM | HL-60 17.3 µM | MDA-N 18.7 µM | SF-295 32 µM | RPMI-8226 16.9 µM | SK-MEL-2 74.3 µM | NCI-H226 64.4 µM | NCI/ADR-RES 51.3 µM | NCI-H23 68.5 µM
